Test results published in US20140357512A1, “HISTONE DEACETYLASE (HDAC) BIOMARKERS IN MULTIPLE MYELOMA” (priority 2013, published 2014).

Tested on: human myeloma cell line MM.1S
Experiment: SILAC acetylated-lysine peptide profiling, HDAC inhibitor vs DMSO (light/heavy ratio)
Type: cell-based
Source text: An embodiment of the invention comprises utilizing the SILAC method in order to quantitate changes in protein expression between two or more populations of cells. The SILAC method is a technique based on mass spectrometry that detects differences in protein abundance among samples using non-radioactive isotopic labeling. The SILAC method is known in the art, and described in detail in Ong et al., “Stable Isotope Labeling by Amino Acids in Cell Culture, SILAC, as a Simple and Accurate Approach to Expression Proteomics”, Molecular & Cellular Proteomics, vol. 1, pp. 376-386 (2002), which is incorporated herein by reference in its entirety.
Briefly, the SILAC method involves growing two populations of cells in cell culture. The first population of cells is grown in growth media containing normal amino acids (“normal media”). The second population of cells is grown in media lacking a standard essential amino acid (such as lysine), but is then supplemented with a non-radioactive, isotopically labeled form of that essential amino acid (such as lysine labeled with ^13C atoms, rather than normal ^12C atoms), which is called “heavy media”. When the two populations of cells are each growing in the medium, they incorporate the amino acids into all of their proteins. The growth of cells maintained in the heavy media is no different from that in normal media. All peptides containing the heavy amino acids are heavier than their normal counterparts. The cells from each of the two populations of cells are lysed. The lysates from each of the two cell populations are then combined. The combined cell lysates are then analyzed by mass spectrometry. Pairs of chemically identical peptides of different stable isotope composition can be differentiated in a mass spectrometer due to their difference in mass. The ratio of peak intensities in the mass spectrum for such peptide pairs reflects the abundance ratio for the two proteins.
This example describes SILAC studies that were performed to compare the effects of three different HDAC inhibitors (Compound A, Compound B, and tubastatin A) to a control on a human multiple myeloma cell line. The HDAC inhibitors were also compared amongst themselves to determine differences in their effects.
A human myeloma cell line MM.1S was grown using either ^12C (light) or ^13C (heavy) lysine containing culture medium. The “heavy” cells were treated with DMSO as the control, and the “light” cells were treated with a single HDAC inhibitor at 37° C. for 6 hours. The heavy and light cells were lysed, and the lysates were mixed in 1:1 ratio and digested with the protease trypsin. The acetylated lysine containing peptides (due to the action of the HDAC inhibitor) in the digested peptide pool were captured by a non-specific anti-acetylated lysine antibody cocktail (the antibodies identify both light and heavy acetylated peptides), and subjected to mass spectrometry analysis in order to identify thousands of individual peptides.
Thousands of peptides were identified in pairs (^12C and ^13C) due to their known mass differences. The amino acid sequence and quantitative ratio (Light/Heavy) of a given peptide in two differentially treated cell lysates were then determined and annotated with their possible protein (gene) sources.
As stated above, three HDAC inhibitors (Compound A, Compound B, and Tubastatin A) were used. Thus, the SILAC method was performed three times, with a different HDAC inhibitor compared to a control each time. Accordingly, there are three pairs of quantitative data in the table below, i.e., Compound A:DMSO, Compound B:DMSO, and Tubastatin A:DMSO. A cut-off of 1.30 fold of change (increase or decrease) was then used to determine “changed” or “+” in the table, and any peptides with a fold of change less than 1.3 fold were determined to be “unchanged” or “0” in the table. Those peptides that were not identified were marked as “NA” in the table. […]

CN1CCc2c(c3ccccc3n2Cc2ccc(C(=O)NO)cc2)C1 [Tub A]
light to heavy ratio (L/H ratio) of acetylated peptide, log 2 scale (NIDPK(ac)PCTPR (SEQ ID NO: 148), Isoform 1 of DAZ-associated protein 1 [83], DAZAP1): 0.80 | L/H ratio of acetylated peptide (NK(ac)WFFQK (SEQ ID NO: 498), 60S ribosomal protein L27 [128], RPL27): 0.00 log 2 | light to heavy ratio (L/H ratio) of acetylated peptide, log 2 scale (NKEEAAEYAK(ac)LLAK (SEQ ID NO: 214), 40S ribosomal protein S6 [211], RPS6): 0.53 | light to heavy ratio (L/H ratio) of acetylated peptide, log 2 scale (NLDK(ac)EYLPIGGLAEFCK (SEQ ID NO: 159), Aspartate aminotransferase mitochondrial [94], GOT2): −0.46 | L/H ratio of acetylated peptide ADKDYHFK(ac)VDNDENEHQLSLR (SEQ ID NO: 61) (NPM1 [32], log 2 scale, drug vs DMSO): −0.64 | L/H ratio of acetylated peptide FINYVK(ac)NCFR (SEQ ID NO: 62) (NPM1 [244], log 2 scale, drug vs DMSO): −0.52 | light to heavy ratio (L/H ratio) of acetylated peptide, log 2 scale (NTILK(ac)AYDGR (SEQ ID NO: 177), Isocitrate dehydrogenase [NADP] mitochondrial [256], IDH2): −0.49 | L/H ratio of acetylated peptide GVTQFGNK(ac)YIQQTKPLTLER (SEQ ID NO: 18) (NUDT21 [23], log 2 scale, drug vs DMSO): 0.50 | light to heavy ratio (L/H ratio) of acetylated peptide, log 2 scale (NVESYTK(ac)LGNPTR (SEQ ID NO: 210), Dolichyl-diphosphooligosaccharide--protein glycosyltransferase subunit 1 precursor [226], RPN1): −0.88 | light to heavy ratio (L/H ratio) of acetylated peptide, log 2 scale (NVTLPAVFK(ac)APIRPDIVNFVHTNLR (SEQ ID NO: 205), 60S ribosomal protein L4 [29], RPL4): −0.48 | L/H ratio of acetylated peptide (NVYK(ac)FELDTSER (SEQ ID NO: 444), Dolichyl-diphosphooligosaccharide--protein glycosyltransferase subunit 2 [460], RPN2): 0.00 log 2 | light to heavy ratio (L/H ratio) of acetylated peptide, log 2 scale (NYEHLFK(ac)VNDK (SEQ ID NO: 192), Mitochondrial import inner membrane translocase subunit TIM16 [82], PAM16): 1.00 | light to heavy ratio (L/H ratio) of acetylated peptide FCLSK(ac)PGVYK (SEQ ID NO: 345) (Nodal modulator 1 [630], NOMO3, NOMO1, drug:DMSO): 0.00 log 2 | L/H ratio of acetylated peptide SGVGNVFIK(ac)NLDK (SEQ ID NO: 63) (PABPC4 [104], log 2 scale, drug vs DMSO): −0.54 | L/H ratio of acetylated peptide YGVSGYPTLK(ac)IFR (SEQ ID NO: 66) (PDIA3 [104], log 2 scale, drug vs DMSO): −0.60 | L/H ratio of acetylated peptide PSHLTNK(ac)FEDK (SEQ ID NO: 65) (PDIA3 [214], log 2 scale, drug vs DMSO): −0.63 | L/H ratio of acetylated peptide GEK(ac)FVMQEEFSR (SEQ ID NO: 64) (PDIA3 [335], log 2 scale, drug vs DMSO): −0.58 | light to heavy ratio (L/H ratio) of acetylated peptide, log 2 scale (PGGPALWGDAFK(ac)R (SEQ ID NO: 189), Protein NipSnap homolog 3A [166], NIPSNAP3A): 0.77 | L/H ratio of acetylated peptide SLLGK(ac)DVLFLK (SEQ ID NO: 67) (PGK1 [91], log 2 scale, drug vs DMSO): 0.38 | L/H ratio of acetylated peptide SIYGEK(ac)FEDENFILK (SEQ ID NO: 68) (PPIA [82], log 2 scale, drug vs DMSO): −0.67 | L/H ratio of acetylated peptide VIFGLFGK(ac)TVPK (SEQ ID NO: 70) (PPIB [67], log 2 scale, drug vs DMSO): −0.44 | L/H ratio of acetylated peptide TVPK(ac)TVDNFVALATGEK (SEQ ID NO: 69) (PPIB [71], log 2 scale, drug vs DMSO): −0.49 | L/H ratio of acetylated peptide VIK(ac)[…] (SEQ ID NO: 71) (PPIB [98], log 2 scale, drug vs DMSO): −0.40 | L/H ratio of acetylated peptide IYGFYDECK(ac)R (SEQ ID NO: 72) (PPP1CC [141], log 2 scale, drug vs DMSO): −0.43 | light to heavy ratio (L/H ratio) of acetylated peptide TAWLDGK(ac)HVVFGK (SEQ ID NO: 592) (Peptidyl-prolyl cis-trans isomerase B [165], gene PPIB, inhibitor:DMSO): 0.00 log 2 | light to heavy ratio (L/H ratio) of acetylated peptide FPDENFK(ac)LK (SEQ ID NO: 347) (Peptidyl-prolyl cis-trans isomerase C [123], PPIC, drug:DMSO): 0.00 log 2 | light to heavy ratio (L/H ratio) of acetylated peptide (ac)AAK(ac)VFESIGK (SEQ ID NO: 277) (Prohibitin [4], PHB, drug:DMSO): 0.39 log 2 | light to heavy ratio (L/H ratio) of acetylated peptide FVVEK(ac)AEQQK (SEQ ID NO: 263) (Prohibitin [202], PHB, drug:DMSO): 0.62 log 2 | light to heavy ratio (L/H ratio) of acetylated peptide GYPTIK(ac)FFR (SEQ ID NO: 541) (Protein disulfide-isomerase [103], gene P4HB, inhibitor:DMSO): 0.00 log 2 | light to heavy ratio (L/H ratio) of acetylated peptide THILLFLPK(ac)SVSDYDGK (SEQ ID NO: 297) (Protein disulfide-isomerase [263], P4HB, drug:DMSO): −0.45 log 2 | light to heavy ratio (L/H ratio) of acetylated peptide SGLLDK(ac)WK (SEQ ID NO: 602) (Signal peptidase complex subunit 2 [38], gene LOC653566, SPCS2, inhibitor:DMSO): 0.00 log 2 | light to heavy ratio (L/H ratio) of acetylated peptide (ac)AEYLASIFGTEK(ac)DK (SEQ ID NO: 283) (Splicing factor U2AF 35 kDa subunit [13], U2AF1, drug:DMSO): 0.60 log 2 | light to heavy ratio (L/H ratio) of acetylated peptide YDDPEVQK(ac)DIK (SEQ ID NO: 578) (Stress-70 protein mitochondrial [135], gene HSPA9, inhibitor:DMSO): 0.00 log 2 | light to heavy ratio (L/H ratio) of acetylated peptide, log 2 scale (TAMK(ac)YNLGLDLR (SEQ ID NO: 158), Glutamate dehydrogenase 1 mitochondrial [527], GLUD1): 0.48 | light to heavy ratio (L/H ratio) of acetylated peptide, log 2 scale (TLNDELEIIEGMK(ac)FDR (SEQ ID NO: 175), 60 kDa heat shock protein mitochondrial [218], HSPD1): −0.45 | light to heavy ratio (L/H ratio) of acetylated peptide, log 2 scale (TPELNLDQFHDK(ac)TPYTIMFGPDK (SEQ ID NO: 139), cDNA FLJ55574 highly similar to Calnexin [217], CANX): −0.48 | light to heavy ratio (L/H ratio) of acetylated peptide, log 2 scale (TPVIVTLK(ac)ENER (SEQ ID NO: 176), Hypoxia up-regulated protein 1 [75], HYOU1): −0.54 | L/H ratio of acetylated peptide INVYYNEATGGK(ac)YVPR (SEQ ID NO: 109) (TUBB2C [58], log 2 scale, drug vs DMSO): −0.43 | L/H ratio of acetylated peptide ILAEGGGAK(ac)FK (SEQ ID NO: 110) (TUFM [91], log 2 scale, drug vs DMSO): −0.61 | L/H ratio of acetylated peptide QIESK(ac)TAFQEALDAAGDK (SEQ ID NO: 111) (TXN [8], log 2 scale, drug vs DMSO): −0.70 | L/H ratio of acetylated peptide VYVAK(ac)VDCTAHSDVCSAQGVR (SEQ ID NO: 113) (TXNDC5, MUTED, MUTED-TXNDC5 [118], log 2 scale, drug vs DMSO): −0.49 | L/H ratio of acetylated peptide LFKPGQEAVK(ac)YQGPR (SEQ ID NO: 112) (TXNDC5, MUTED, MUTED-TXNDC5 [150], log 2 scale, drug vs DMSO): −0.47 | light to heavy ratio (L/H ratio) of acetylated peptide, log 2 scale (TYGEIFEK(ac)FHPIR (SEQ ID NO: 188), NADH dehydrogenase [ubiquinone] 1 subunit C2 [114], NDUFC2): 1.00 | light to heavy ratio (L/H ratio) of acetylated peptide NICSK(ac)YSVR (SEQ ID NO: 256) (Thioredoxin domain-containing protein 5 [390], TXNDC5, MUTED, MUTED-TXNDC5, drug:DMSO): −0.51 log 2
